The values below come from patent US7226741B2, “Multimerization of HIV-1 Vif protein as a therapeutic target” (priority 2001, dated 2007).

This experiment has as its target T1, HIV-1 Vif protein (Vif-Vif interaction) (Human immunodeficiency virus type 1 group M subtype B, UniProt P12504).
T1 construct: The vif gene also was inserted into pGEX vector for in vitro expression and isolation of GST-Vif fusion protein; The PCR-generated wild-type vif gene and its mutants were then inserted into pCITE-4a vector; made in house; host or cells: GST-Vif: E. coli BL21 (pGEX); 35S-Vif: in vitro translation from pCITE-4a (Novagen kit)
The experiment is classed as binding. The note with it: for 35S-Vif binds with GST-Vif (%) Mean ± SD: peptide added to the Vif-Vif binding reaction, no peptide (GST pull-down) designated as 100%; for Inhibition of Vif-Vif interaction (in words): synthesized peptides added into the reaction system for Vif-Vif binding, in vitro. The procedure:
The vector pGEX, with or without the vif gene, was transformed into BL21 competent cells (Novagen, Madison, Wis.). After growth at 37° C. to approximately 0.6 O.D., the expression of GST or GST-Vif proteins was induced by 0.4 mM isopropylthio-β-D-galactoside (IPTG). The bacterial cells were lyzed by adding lysing buffer (1% Triton-X-100, 0.1 mg/ml lysozyme, 2 mM EDTA, 1 mM PMSF, 2 μg/ml leupeptin, and 1 μg/ml aprotinin), followed by sonication. The sample was pelleted at 12,000 g for 10 min at 4° C., and the supernatant was applied to a glutathione-conjugated agarose bead (Sigma, St. Louis, Mo.) column. After batch binding, the matrix was washed three times, each time by the addition of 10 bed volumes of phosphorus-buffer saline (PBS). The GST or GST-Vif conjugated agarose beads were then aliquoted and stored at −20° C. Conversely, ^35S-labeled Vif or its mutant proteins were synthesized utilizing SPT3 kits (Novagen, Madison, Wis.). The protocol supplied by the manufacturer was followed. After in vitro translation, RNase A (0.2 mg/ml) was added to stop the reaction and remove tRNAs and the in vitro transcribed mRNA. The trichloroacetic acid (TCA)-insoluble radioactive amino acids were quantitated in the presence of a scintillation cocktail.
For GST pull-down assays, a GST or GST-Vif conjugated bead slurry was mixed with ^35S-labeled Vif or its mutants (50,000 cpm) in a binding buffer [150 mM NaCl, 20 mM Tris-HCl (pH 7.5), 0.1% Triton-X-100]. After binding at 4° C. for 1 hour, the mixture was centrifuged at 3,000 g for 1 min, and the beads were washed three times with binding buffer. The ^35S-labeled Vif proteins were dissociated from the beads by adding SDS-containing loading buffer and heating at 95° C. for 5 minutes. The samples were then electrophoresized in SDS-PAGE gels (15% Tris-HCl ready gel made by Bio-Rad, Hercules, Calif.). After treatment with the fixing buffer (10% acetic acid, 10% methanol) and then the Amplify (Amersham-Pharmacia, Piscataway, N.J.), the gels were dried and exposed to X-ray film or quantitatively analyzed utilizing phosphor image (Molecular Dynamics, Sunnyview, Calif.).
A Vif-Vif binding assay was similar to the GST pull-down assays, except that the GST or GST-Vif conjugated bead slurry was mixed with ^35S-labeled Vif and the test peptides or molecules in the binding buffer. The results were compared to that from the GST pull-down assay, which was designated as 100%.

T1 sequence (P12504 whole entry, the tested form may be a part): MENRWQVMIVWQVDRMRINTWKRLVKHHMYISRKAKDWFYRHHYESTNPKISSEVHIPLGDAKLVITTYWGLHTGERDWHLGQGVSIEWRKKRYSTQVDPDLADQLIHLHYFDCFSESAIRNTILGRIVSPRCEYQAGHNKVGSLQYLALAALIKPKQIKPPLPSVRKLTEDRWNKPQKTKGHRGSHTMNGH

Regarding ESAIRKAILGHIVSP [Vif117-131], the “35S-Vif binds with GST-Vif (%) Mean ± SD” value was 94.5 ± 11.2%. With KKIKPPLPSVTKLTE [Vif157-171], the “35S-Vif binds with GST-Vif (%) Mean ± SD” value is reported as 49.2 ± 2.5% and the “Inhibition of Vif-Vif interaction (in words)” value (“Inhibition” for short) is on record as “able to inhibit the Vif-Vif interaction”.

For the sequence KPKKIKPPLPSV [Vif155-166], the “35S-Vif binds with GST-Vif (%) Mean ± SD” value is listed as 57.1 ± 8.7% and the “Inhibition” value was “able to inhibit the Vif-Vif interaction”.

As to LPLPAPSFHRTT [VMI9], the “35S-Vif binds with GST-Vif (%) Mean ± SD” value is given as 22.0 + 6.2% and the “Inhibition” value is on record as “significantly inhibit Vif-Vif interaction”. As for PPLPSVTKLTEDRWN [Vif161-175], the “35S-Vif binds with GST-Vif (%) Mean ± SD” value came to 70.2 ± 5.5% and the “Inhibition” value was “able to inhibit the Vif-Vif interaction”. With SNQGGSPLPRSV [VMI7], the “35S-Vif binds with GST-Vif (%) Mean ± SD” value worked out at 19.0 ± 2.2% and the “Inhibition” value is “significantly inhibit Vif-Vif interaction”. Regarding “SVSVGMKPSPRP (Synthetic peptide containing PXP motif) [VMI5, 12-mer peptide containing a PXP motif]”, the “35S-Vif binds with GST-Vif (%) Mean ± SD” value is 36.3 ± 5.1%.
